In paper PMC7126861 (Bioorganic & Medicinal Chemistry Letters, 2010):

Target: SARS-CoV 3CL^pro (Severe acute respiratory syndrome coronavirus, UniProt P0C6X7)
Assay: biochemical

| SMILES | IC50 [µM] |
| --- | --- |
| N#Cc1c(-c2ccccc2)nc(SCc2ccccc2)[nH]c1=O [Compound 6a] | > 50 |
| N#Cc1c(-c2ccccc2)nc(SCCc2ccccc2)[nH]c1=O [Compound 6b] | > 50 |
| COc1ccc(-c2nc(SCc3ccccc3)[nH]c(=O)c2C#N)cc1 [Compound 6d] | > 50 |
| Cc1ccc(-c2nc(SCc3ccccc3)[nH]c(=O)c2C#N)cc1 [Compound 6g] | > 50 |
| Cc1ccc(-c2nc(SCCc3ccccc3)[nH]c(=O)c2C#N)cc1 [Compound 6h] | > 50 |
| Cc1ccc(-c2nc(SCc3ccc([N+](=O)[O-])cc3)[nH]c(=O)c2C#N)cc1 [Compound 6i] | > 50 |
| N#Cc1c(-c2cccc([N+](=O)[O-])c2)nc(SCCc2ccccc2)[nH]c1=O [Compound 6j] | > 50 |
| N#Cc1c(-c2cccc(Cl)c2)nc(SCc2ccccc2)[nH]c1=O [Compound 6n] | > 50 |
